Measured values taken from ChEMBL document CHEMBL1145297, “Synthesis, aerobic cytotoxicity, and radiosensitizing activity of novel 2,4-dinitrophenylamine tethered 5-fluorouracil and hydroxyurea” (Bioorg Med Chem Lett, 2006).
Activity calls are given as the source filed them. No cut-off for these calls is given here.

Experiments:
HT-29 [1] = assay: Cytotoxicity against HT29 cell line without 4 Gy [60Co]-induced irradiation by MTT assay relative to control; type: cell-based; details: human
HT-29 [2] = assay: Cytotoxicity against 4 Gy [60Co] irradiated HT29 cell line by MTT assay relative to control; type: cell-based; details: human
HT-29 [3] = assay: Radiosensitizing activity in 4 Gy [60Co] irradiated HT29 cells; type: functional, cell-based; details: Homo sapiens
HT-29 [4] = assay: Inhibition of viability in 4 Gy [60Co] irradiated HT29 cells at 10 uM relative to control; type: functional, Homo sapiens
HT-29 [5] = assay: Radiosensitizing activity in 4 Gy [60Co] irradiated HT29 cells at 2.5 uM; type: functional, cell-based; details: Homo sapiens
SP2 = assay: Radiosensitizing activity in SP2 cell line; type: functional, cell-based; details: Mus musculus
HT-29 [6] = assay: Cytotoxicity against HT29 cell line below 2.5 uM; type: cell-based; details: human

CCCNc1ccc([N+](=O)[O-])cc1[N+](=O)[O-]
Activity (HT-29 [1]): 20% | Activity (HT-29 [2]): 20% | Activity (HT-29 [3]): inactive

O=c1[nH]cc(F)c(=O)n1CCCNc1ccc([N+](=O)[O-])cc1[N+](=O)[O-]
Activity (HT-29 [4]): 60% | Activity (HT-29 [5]): Active | Activity (HT-29 [1]): Not Active | Activity (HT-29 [2]): Not Active | Activity (SP2): Active

O=c1[nH]cc(F)c(=O)[nH]1 [FLUOROURACIL]
Activity (HT-29 [6]): Not Active | Activity (HT-29 [1]): 65% | Activity (HT-29 [2]): 65% | Activity (HT-29 [3]): inactive

NC(=O)NO [HYDROXYUREA]
Activity (HT-29 [1]): 25% | Activity (HT-29 [2]): 25%

NC(=O)NOCCCNc1ccc([N+](=O)[O-])cc1[N+](=O)[O-]
Activity (HT-29 [4]): 60% | Activity (HT-29 [5]): Active | Activity (HT-29 [1]): Not Active | Activity (HT-29 [2]): Not Active | Activity (SP2): Active
